Source: article PMC5853465, “Use of D-glucose–fenpiclonil conjugate as a potent and specific inhibitor of sucrose carriers” (Journal of Experimental Botany, 2017)

Target: T1, AtSUC2 (Arabidopsis thaliana, UniProt Q39231)
T1 construct: gene SUC2; full coding region in plasmid pDR-R1-R2-HIS3 (derived from pDR 192), expressed in Saccharomyces cerevisiae RS453 cells
T1 sequence (Q39231 1-512): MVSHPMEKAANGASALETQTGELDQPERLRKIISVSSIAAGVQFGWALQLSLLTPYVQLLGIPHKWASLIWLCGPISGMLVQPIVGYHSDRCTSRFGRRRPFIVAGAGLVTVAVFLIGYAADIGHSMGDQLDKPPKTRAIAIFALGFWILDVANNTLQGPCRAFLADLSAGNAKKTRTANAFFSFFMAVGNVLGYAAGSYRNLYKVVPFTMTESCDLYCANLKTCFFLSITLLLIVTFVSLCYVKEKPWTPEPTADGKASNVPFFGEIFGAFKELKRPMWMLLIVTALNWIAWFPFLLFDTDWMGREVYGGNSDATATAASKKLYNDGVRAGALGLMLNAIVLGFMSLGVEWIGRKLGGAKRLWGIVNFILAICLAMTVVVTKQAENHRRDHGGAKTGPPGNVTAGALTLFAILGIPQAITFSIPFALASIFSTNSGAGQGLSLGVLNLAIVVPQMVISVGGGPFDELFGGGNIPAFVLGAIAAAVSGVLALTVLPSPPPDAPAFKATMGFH
Experiment: […]sucrose uptake into AtSUC2-transformed yeast, empty vector subtracted
Type: cell-based
Details: read-out: Inibition^b (%)

For `CC(C(=O)NCc1cn([C@@H]2O[C@H](CO)[C@@H](O)[C@H](O)[C@H]2O)nn1)n1cc(C#N)c(-c2cccc(Cl)c2Cl)c1` (stereo partly drawn) [D-GFC, D-glucose–fenpiclonil conjugate], which inhibition at 500 µM is on record?
The inhibition at 500 µM was 81.5%.
